From PMC8185074, “Anchor extension: a structure-guided approach to design cyclic peptides targeting enzyme active sites” (Nature Communications, 2021)
Peptide text beside a SMILES is read from it.

Experiments:
Type in all cases: biochemical
HDAC8 = target: T1, HDAC8 (Homo sapiens, UniProt Q9BY41); assay: HDAC8 inhibition, full IC50 measurement (Reaction Biology; fluorogenic p53 peptide RHKK(Ac)AMC); details: t1/t2 replicates
T1 construct: purchased Reaction Biology Corporation (assay run by the CRO)
T1 sequence (Q9BY41 1-377): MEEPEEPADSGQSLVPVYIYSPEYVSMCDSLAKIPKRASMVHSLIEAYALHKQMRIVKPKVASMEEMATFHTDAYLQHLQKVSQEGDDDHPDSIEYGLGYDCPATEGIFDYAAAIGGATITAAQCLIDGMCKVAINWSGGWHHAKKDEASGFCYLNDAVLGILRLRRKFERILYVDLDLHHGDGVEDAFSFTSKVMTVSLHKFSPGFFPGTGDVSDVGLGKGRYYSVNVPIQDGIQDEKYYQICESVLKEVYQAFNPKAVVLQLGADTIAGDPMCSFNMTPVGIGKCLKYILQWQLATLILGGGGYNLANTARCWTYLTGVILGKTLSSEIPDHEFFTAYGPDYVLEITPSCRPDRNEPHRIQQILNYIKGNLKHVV
Method in brief: (§1)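 Inhibitory peptides were acoustically dispensed with enzyme, then substrate added; 1 h at 30 °C. Developer stopped reaction; plateau endpoint fluorescence (360/460 nm) gave IC50.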

HDAC2 = target: T2, HDAC2 (Homo sapiens, UniProt Q92769); assay: HDAC2 inhibition, full IC50 measurement (Reaction Biology; fluorogenic p53 peptide RHKK(Ac)AMC)
T2 construct: purchased Reaction Biology Corporation (assay run by the CRO)
Method in brief: as §1

HDAC1 = target: T3, HDAC1 (Homo sapiens, UniProt Q13547); assay: HDAC1 inhibition, full IC50 measurement (Reaction Biology; fluorogenic p53 peptide RHKK(Ac)AMC); details: t1/t2 replicates
T3 construct: purchased Reaction Biology Corporation (assay run by the CRO)
Method in brief: as §1

[1] = peptide conc. 1.00E-05 M, listed as des1.1.0_t1
[2] = peptide conc. 1.00E-05 M, listed as des1.1.0_t2
[3] = peptide conc. 1.11E-06 M, listed as des1.1.0_t1
[4] = peptide conc. 1.11E-06 M, listed as des1.1.0_t2
[5] = peptide conc. 1.23E-07 M, listed as des1.1.0_t1
[6] = peptide conc. 1.23E-07 M, listed as des1.1.0_t2
[7] = peptide conc. 1.37E-08 M, listed as des1.1.0_t1
[8] = peptide conc. 1.52E-09 M, listed as des1.1.0_t1
[9] = peptide conc. 1.52E-09 M, listed as des1.1.0_t2
[10] = peptide conc. 3.33E-06 M, listed as des1.1.0_t1
[11] = peptide conc. 3.33E-06 M, listed as des1.1.0_t2
[12] = peptide conc. 3.70E-07 M, listed as des1.1.0_t1
[13] = peptide conc. 3.70E-07 M, listed as des1.1.0_t2
[14] = peptide conc. 4.12E-08 M, listed as des1.1.0_t1
[15] = peptide conc. 4.12E-08 M, listed as des1.1.0_t2
[16] = peptide conc. 4.57E-09 M, listed as des1.1.0_t1
[17] = peptide conc. 4.57E-09 M, listed as des1.1.0_t2
[18] = peptide conc. 5.08E-10 M, listed as des1.1.0_t1
[19] = peptide conc. 5.08E-10 M, listed as des1.1.0_t2

T2 sequence (Q92769 whole entry): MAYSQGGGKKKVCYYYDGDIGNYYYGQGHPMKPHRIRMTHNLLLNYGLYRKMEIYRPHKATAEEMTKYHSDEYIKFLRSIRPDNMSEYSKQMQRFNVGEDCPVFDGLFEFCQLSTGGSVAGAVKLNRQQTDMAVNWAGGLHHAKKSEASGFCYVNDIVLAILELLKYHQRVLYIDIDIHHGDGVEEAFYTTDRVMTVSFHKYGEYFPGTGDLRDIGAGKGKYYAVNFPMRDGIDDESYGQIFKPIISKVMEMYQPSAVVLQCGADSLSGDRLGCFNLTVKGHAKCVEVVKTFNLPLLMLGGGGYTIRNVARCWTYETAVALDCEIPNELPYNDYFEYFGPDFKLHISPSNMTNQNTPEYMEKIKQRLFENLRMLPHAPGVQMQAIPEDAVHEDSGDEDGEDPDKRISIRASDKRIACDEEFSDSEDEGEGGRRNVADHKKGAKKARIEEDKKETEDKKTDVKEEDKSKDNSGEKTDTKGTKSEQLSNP
T3 sequence (Q13547 whole entry): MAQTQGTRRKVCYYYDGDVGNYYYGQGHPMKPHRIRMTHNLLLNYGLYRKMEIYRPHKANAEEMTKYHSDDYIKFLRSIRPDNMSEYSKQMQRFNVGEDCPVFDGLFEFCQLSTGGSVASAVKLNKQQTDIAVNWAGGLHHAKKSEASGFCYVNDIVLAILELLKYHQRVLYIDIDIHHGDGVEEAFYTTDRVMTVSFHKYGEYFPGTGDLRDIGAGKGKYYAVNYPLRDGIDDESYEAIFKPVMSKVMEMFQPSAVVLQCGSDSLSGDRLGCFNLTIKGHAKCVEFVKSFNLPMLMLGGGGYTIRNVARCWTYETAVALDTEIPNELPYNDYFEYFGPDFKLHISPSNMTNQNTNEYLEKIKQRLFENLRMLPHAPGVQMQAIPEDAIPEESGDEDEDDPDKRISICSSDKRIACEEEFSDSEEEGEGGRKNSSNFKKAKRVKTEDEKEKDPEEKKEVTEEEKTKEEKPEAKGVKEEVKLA

Question: How did the “HDAC8 activity raw data (signal)” value (HDAC8; [1]) turn out when `NCCCC[C@@H]1NC(=O)[C@@H]2CCCN2C(=O)[C@H](CC(N)=O)NC(=O)[C@H](CCCCCS)NC(=O)CNC(=O)[C@H](Cc2c[nH]c3ccccc23)NC(=O)[C@@H](CCCCN)NC(=O)[C@H](CCC(N)=O)NC1=O` [des1.1.0, SHA-Asn-Pro-Lys-Gln-dLys-Trp-Gly] (HELM PEPTIDE1{G.[O=C([C@H](CCCCCS)N[*:1])[*:2]].N.P.K.Q.[dK].W}$PEPTIDE1,PEPTIDE1,1:R1-8:R2$$$V2.0) was run?
Answer: 10236983

Question: What about the “HDAC8 activity raw data (signal)” value (HDAC8; [2]) of the same compound?
Answer: 10257985

Question: And the “HDAC8 activity raw data (signal)” value (HDAC8; [3])?
Answer: 29747792

Question: What about the “HDAC8 activity raw data (signal)” value (HDAC8; [4]) of the same compound?
Answer: 28102681

Question: What about the “HDAC8 activity raw data (signal)” value (HDAC8; [5]) of the same compound?
Answer: 42994609

Question: And the “HDAC8 activity raw data (signal)” value (HDAC8; [6])?
Answer: 40726222

Question: And the “HDAC8 activity raw data (signal)” value (HDAC8; [7])?
Answer: 47328720

Question: What about the “HDAC8 activity raw data (signal)” value (HDAC8; [8]) of the same compound?
Answer: 53395040

Question: What about the “HDAC8 activity raw data (signal)” value (HDAC8; [9]) of the same compound?
Answer: 46072556

Question: And the “HDAC8 activity raw data (signal)” value (HDAC8; [10])?
Answer: 22600954

Question: What about the “HDAC8 activity raw data (signal)” value (HDAC8; [11]) of the same compound?
Answer: 20891410

Question: And the “HDAC8 activity raw data (signal)” value (HDAC8; [12])?
Answer: 39809686

Question: What about the “HDAC8 activity raw data (signal)” value (HDAC8; [13]) of the same compound?
Answer: 39972357

Question: And the “HDAC8 activity raw data (signal)” value (HDAC8; [14])?
Answer: 43706367

Question: And the “HDAC8 activity raw data (signal)” value (HDAC8; [15])?
Answer: 45310513

Question: What about the “HDAC8 activity raw data (signal)” value (HDAC8; [16]) of the same compound?
Answer: 46840747

Question: What about the “HDAC8 activity raw data (signal)” value (HDAC8; [17]) of the same compound?
Answer: 46072556

Question: And the “HDAC8 activity raw data (signal)” value (HDAC8; [18])?
Answer: 54262535

Question: What about the “HDAC8 activity raw data (signal)” value (HDAC8; [19]) of the same compound?
Answer: 46072556

Question: What about the “HDAC2 activity raw data (signal)” value (HDAC2; Conc. 1.00E-05 M, t1) of the same compound?
Answer: 26927

Question: What about the “HDAC2 activity raw data (signal)” value (HDAC2; Conc. 1.00E-05 M, t2) of the same compound?
Answer: 32005

Question: What about the “HDAC2 activity raw data (signal)” value (HDAC2; Conc. 1.11E-06 M, t1) of the same compound?
Answer: 219707

Question: And the “HDAC2 activity raw data (signal)” value (HDAC2; Conc. 1.11E-06 M, t2)?
Answer: 218492

Question: What about the “HDAC2 activity raw data (signal)” value (HDAC2; Conc. 1.23E-07 M, t1) of the same compound?
Answer: 761586

Question: And the “HDAC2 activity raw data (signal)” value (HDAC2; Conc. 1.23E-07 M, t2)?
Answer: 802228

Question: And the “HDAC2 activity raw data (signal)” value (HDAC2; Conc. 1.37E-08 M, t1)?
Answer: 1027147

Question: And the “HDAC2 activity raw data (signal)” value (HDAC2; Conc. 1.37E-08 M, t2)?
Answer: 1098979

Question: What about the “HDAC2 activity raw data (signal)” value (HDAC2; Conc. 1.52E-09 M, t1) of the same compound?
Answer: 1105616

Question: What about the “HDAC2 activity raw data (signal)” value (HDAC2; Conc. 1.52E-09 M, t2) of the same compound?
Answer: 1105020

Question: What about the “HDAC2 activity raw data (signal)” value (HDAC2; Conc. 3.33E-06 M, t1) of the same compound?
Answer: 102737

Question: And the “HDAC2 activity raw data (signal)” value (HDAC2; Conc. 3.33E-06 M, t2)?
Answer: 85727

Question: What about the “HDAC2 activity raw data (signal)” value (HDAC2; Conc. 3.70E-07 M, t1) of the same compound?
Answer: 469170

Question: And the “HDAC2 activity raw data (signal)” value (HDAC2; Conc. 3.70E-07 M, t2)?
Answer: 506124

Question: And the “HDAC2 activity raw data (signal)” value (HDAC2; Conc. 4.12E-08 M, t1)?
Answer: 943203

Question: And the “HDAC2 activity raw data (signal)” value (HDAC2; Conc. 4.12E-08 M, t2)?
Answer: 906297

Question: And the “HDAC2 activity raw data (signal)” value (HDAC2; Conc. 4.57E-09 M, t1)?
Answer: 1010930

Question: And the “HDAC2 activity raw data (signal)” value (HDAC2; Conc. 4.57E-09 M, t2)?
Answer: 1048769

Question: And the “HDAC2 activity raw data (signal)” value (HDAC2; Conc. 5.08E-10 M, t1)?
Answer: 1134293

Question: What about the “HDAC2 activity raw data (signal)” value (HDAC2; Conc. 5.08E-10 M, t2) of the same compound?
Answer: 1187103

Question: And the IC50 (HDAC2; figure legends, Supp. Table 1, read-out: HDAC2 IC50)?
Answer: 289 nM

Question: And the “HDAC1 activity raw data (signal)” value (HDAC1; [1])?
Answer: 20784

Question: What about the “HDAC1 activity raw data (signal)” value (HDAC1; [2]) of the same compound?
Answer: 14494

Question: What about the “HDAC1 activity raw data (signal)” value (HDAC1; [3]) of the same compound?
Answer: 173781

Question: And the “HDAC1 activity raw data (signal)” value (HDAC1; [4])?
Answer: 153537

Question: What about the “HDAC1 activity raw data (signal)” value (HDAC1; [5]) of the same compound?
Answer: 723204

Question: What about the “HDAC1 activity raw data (signal)” value (HDAC1; [6]) of the same compound?
Answer: 656726

Question: What about the “HDAC1 activity raw data (signal)” value (HDAC1; [7]) of the same compound?
Answer: 1174733

Question: What about the “HDAC1 activity raw data (signal)” value (HDAC1; peptide conc. 1.37E-08 M, listed as des1.1.0_t2) of the same compound?
Answer: 1037204

Question: What about the “HDAC1 activity raw data (signal)” value (HDAC1; [8]) of the same compound?
Answer: 1283411

Question: And the “HDAC1 activity raw data (signal)” value (HDAC1; [9])?
Answer: 1084142

Question: What about the “HDAC1 activity raw data (signal)” value (HDAC1; [10]) of the same compound?
Answer: 63841

Question: What about the “HDAC1 activity raw data (signal)” value (HDAC1; [11]) of the same compound?
Answer: 53160

Question: What about the “HDAC1 activity raw data (signal)” value (HDAC1; [12]) of the same compound?
Answer: 422237

Question: And the “HDAC1 activity raw data (signal)” value (HDAC1; [13])?
Answer: 392419

Question: What about the “HDAC1 activity raw data (signal)” value (HDAC1; [14]) of the same compound?
Answer: 1039124

Question: What about the “HDAC1 activity raw data (signal)” value (HDAC1; [15]) of the same compound?
Answer: 863645

Question: What about the “HDAC1 activity raw data (signal)” value (HDAC1; [16]) of the same compound?
Answer: 1182029

Question: What about the “HDAC1 activity raw data (signal)” value (HDAC1; [17]) of the same compound?
Answer: 1065379

Question: What about the “HDAC1 activity raw data (signal)” value (HDAC1; [18]) of the same compound?
Answer: 1239936

Question: And the “HDAC1 activity raw data (signal)” value (HDAC1; [19])?
Answer: 1111104
